Results on 23 compounds are retold here after ChEMBL document CHEMBL5728630, “Aryl, heteroaryl, and heterocyclic pharmaceutical compounds for treatment of medical disorders” (2021).

As a reminder, the IC50 is the midpoint of a concentration-inhibition curve.

Chain of Complement factor D (P00746 whole entry): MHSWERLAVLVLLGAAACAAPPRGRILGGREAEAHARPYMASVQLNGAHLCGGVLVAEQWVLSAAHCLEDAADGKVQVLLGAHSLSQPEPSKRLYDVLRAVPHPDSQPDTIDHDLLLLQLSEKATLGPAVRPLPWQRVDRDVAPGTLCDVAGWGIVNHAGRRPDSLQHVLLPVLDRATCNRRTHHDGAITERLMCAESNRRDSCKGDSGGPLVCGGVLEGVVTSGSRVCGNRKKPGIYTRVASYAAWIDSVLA

This assay concerns the target Complement factor D (Homo sapiens, UniProt P00746). The assay can be described thus: Factor D Assay: Human Factor D (purified from human serum, Complement Technology, Inc.) at 80 nM final concentration is incubated with test compound at various concentrations for 5 min at room temperature in 50 mM Tris, 1M NaCl, pH 7.5. A synthetic substrate Z-L-Lys-SBz and DTNB (Ellman's reagent) are added to final concentrations of 100 μM each. Absorbance at 405 nm (A405) is recorded at 30 second intervals for 30 min using a microplate spectrophotometer. IC50 values are calculated by nonlinear regression of complement Factor D reaction rates as a function of test compound concentration.
For `CC(=O)c1nn(CC(=O)N2[C@H](C(=O)NCCc3ccccc3)C[C@@]3(C)C[C@@H]23)c2c(C)cc(-c3cnc(C)nc3)cc12`, the IC50 was less than 1000 nM.

For the compound `Cc1ncc(-c2ccc3c(c2)c(C(=O)NC2CC2)nn3CC(=O)N2[C@H](C(=O)Nc3nc(Br)ccc3C)C[C@@]3(C)C[C@@H]23)cn1`, the 50% inhibitory concentration (IC50) was less than 1000 nM.

Turning to `Cc1ncc(-c2ccc3c(c2)c(C(=O)NC(C)C2CC2)nn3CC(=O)N2[C@H](C(=O)Nc3nc(Br)ccc3C)C[C@@]3(C)C[C@@H]23)cn1` (stereo partly drawn), the half-inhibitory concentration (IC50) is less than 1000 nM.

On to `C#CCNC(=O)c1nn(CC(=O)N2[C@H](C(=O)Nc3nc(Br)ccc3C)C[C@@]3(C)C[C@@H]23)c2ccc(-c3cnc(C)nc3)cc12`, for which the IC50 was less than 1000 nM.

Turning to `COc1ccc(CNC(=O)[C@@H]2C[C@@]3(C)C[C@H]3N2C(=O)Cn2nc(C(C)=O)c3cc(-c4cnc(C)nc4)cc(C)c32)cc1`, the half-inhibitory concentration (IC50) was less than 1000 nM.

With `COc1cccc(CNC(=O)[C@@H]2C[C@@]3(C)C[C@H]3N2C(=O)Cn2nc(C(C)=O)c3cc(-c4cnc(C)nc4)cc(C)c32)c1`, the IC50 was less than 1000 nM.

Consider `COc1ccccc1CNC(=O)[C@@H]1C[C@@]2(C)C[C@H]2N1C(=O)Cn1nc(C(C)=O)c2cc(-c3cnc(C)nc3)cc(C)c21`, for which the 50% inhibitory concentration (IC50) was less than 1000 nM.

As to `CC(=O)c1nn(CC(=O)N2[C@H](C(=O)Nc3nc(Br)ccc3CN3CCC(S(C)(=O)=O)CC3)C[C@@]3(C)C[C@@H]23)c2c(C)cc(-c3cnc(C)nc3)cc12`, the half-maximal inhibitory concentration (IC50) is less than 1000 nM.

For `CC(=O)c1nn(CC(=O)N2[C@H](C(=O)NCCCc3ccccc3)C[C@@]3(C)C[C@@H]23)c2c(C)cc(-c3cnc(C)nc3)cc12`, the 50% inhibitory concentration (IC50) was less than 1000 nM.

Take `Cc1ncc(-c2ccc3c(c2)c(C(=O)NC(C)(C)C)nn3CC(=O)N2[C@H](C(=O)Nc3nc(Br)ccc3C)C[C@@]3(C)C[C@@H]23)cn1`: the IC50 was greater than 10000 nM.

Take `Cc1ncc(-c2ccc3c(c2)c(C(=O)NC(C)(C)C2CC2)nn3CC(=O)N2[C@H](C(=O)Nc3nc(Br)ccc3C)C[C@@]3(C)C[C@@H]23)cn1`: the 50% inhibitory concentration (IC50) is greater than 10000 nM.

Consider `CC(=O)c1nn(CC(=O)N2[C@H](C(=O)N[C@@H](C)c3ccccc3)C[C@@]3(C)C[C@@H]23)c2c(C)cc(-c3cnc(C)nc3)cc12`, for which the concentration for half-maximal inhibition (IC50) was less than 1000 nM.

Consider `CC(=O)c1nn(CC(=O)N2[C@H](C(=O)NCc3ccccc3)C[C@@]3(C)C[C@@H]23)c2ccc(-c3cnc(C)nc3)cc12`, for which the half-inhibitory concentration (IC50) is less than 1000 nM.

Consider `CCCCCCNC(=O)[C@@H]1C[C@@]2(C)C[C@H]2N1C(=O)Cn1nc(C(C)=O)c2cc(-c3cnc(C)nc3)cc(C)c21`, for which the IC50 is less than 1000 nM.

As to `CC(=O)c1nn(CC(=O)N2[C@H](C(=O)NCc3ccccc3)C[C@@]3(C)C[C@@H]23)c2c(C)cc(-c3cnc(C)nc3)cc12`, the IC50 was less than 1000 nM.

As for `CCCCCNC(=O)[C@@H]1C[C@@]2(C)C[C@H]2N1C(=O)Cn1nc(C(C)=O)c2cc(-c3cnc(C)nc3)ccc21`, the IC50 was less than 1000 nM.

For the compound `Cc1ncc(-c2cc(C)c3c(c2)c(I)nn3CC(=O)N2[C@H](C(=O)Nc3nc(Br)ccc3C)C[C@@]3(C)C[C@@H]23)cn1`, the IC50 is less than 1000 nM.

As to `C=CCNC(=O)c1nn(CC(=O)N2[C@H](C(=O)Nc3nc(Br)ccc3C)C[C@@]3(C)C[C@@H]23)c2ccc(-c3cnc(C)nc3)cc12`, the half-maximal inhibitory concentration (IC50) is less than 1000 nM.

For the compound `C#CC(C)(C)NC(=O)c1nn(CC(=O)N2[C@H](C(=O)Nc3nc(Br)ccc3C)C[C@@]3(C)C[C@@H]23)c2ccc(-c3cnc(C)nc3)cc12`, the IC50 was greater than 10000 nM.

Take `C#CC(C)NC(=O)c1nn(CC(=O)N2[C@H](C(=O)Nc3nc(Br)ccc3C)C[C@@]3(C)C[C@@H]23)c2ccc(-c3cnc(C)nc3)cc12` (stereo partly drawn): the half-inhibitory concentration (IC50) is less than 1000 nM.

In the case of `CC(=O)c1nn(CC(=O)N2[C@H](C(=O)NCc3ccccc3F)C[C@@]3(C)C[C@@H]23)c2c(C)cc(-c3cnc(C)nc3)cc12`, the half-inhibitory concentration (IC50) is less than 1000 nM.

As for `CC(=O)c1nn(CC(=O)N2[C@H](C(=O)N[C@H](C)c3ccccc3)C[C@@]3(C)C[C@@H]23)c2c(C)cc(-c3cnc(C)nc3)cc12`, the IC50 was less than 1000 nM.

On to `CC(=O)c1nn(CC(=O)N2[C@H](C(=O)NCC(C)(C)C)C[C@@]3(C)C[C@@H]23)c2ccc(-c3cnc(C)nc3)cc12`, for which the IC50 was less than 1000 nM.
